Data published in patent US12643102B2, “Method of profiling a sample comprising a plurality of cells and a system for performing the same” (Massachusetts Institute of Technology, priority 2020, dated 2026).

Test system: WBCs from whole blood
Assay: DLD assay: WBC biophysical profiling (size Dapp, deformability CDMdot) after in vitro activation of whole blood
Format: cell-based
Conditions: for WBC Dapp (average of L and L^-1 DLD assays): 2 hours incubation, undiluted whole blood at 37° C., 2.5 μL/min, n=5, healthy baseline 9.7±0.1 μm; for increase in WBC Dapp: 2 hours, versus healthy baseline
Procedure: The open reservoirs 102A, 102B and 102C facilitate easy sample loading, sample resuspension to prevent settling of cells and washing the reservoir to reuse the device. The required loaded volume per run is 10 μL and the reservoir can hold up to 25 μL of blood. As the fluid is withdrawn, the sample flows through a region comprising 21 DLD device segments sandwiched between two 1× phosphate-buffered saline (PBS) buffer streams (see Table 2). Each segment comprises an array of pillars and has a specific DLD critical cut-off size (Dc) determined by the empirical Equation (1): […]
where G is the regular spacing between pillars and θ is the gradient of the pillar array. This design is known as a chirped DLD array where each downstream segment has an increasing pillar row-shift gradient corresponding to an increasing Dc ranging from 6.0 to 16.0 μm in steps of 0.5 μm (see Methods). Immune cells flowing through the device 100 are deflected laterally only within DLD segments where cell sizes are larger than Dc; the cells therefore exit the device 100 at defined lateral positions depicted in the output region shown in FIG. 1A. The output of the sorting forms a spectrum in its size distribution (i.e., a biophysical parameter based on a distribution profile of the cells sorted by the array of pillars).
To evaluate the biophysical combinatorial immune profiling potential of DLD assay, a single biophysical size and deformability parameter is determined. For size parameters, the average Dapp for L and L^−1 assays was quantified at 2.5 μL/min, while a single cell deformability parameter (CDMdot) was emphasized by taking the product of the CDML and CDML^−1 measurements. Performing a product amplifies the deformability differences compared to CDML and CDML^−1 measurements individually (see FIG. 8). By combining the measurements of two DLD devices, a unique leukocyte biophysical fingerprint as a profiling tool to measure different states of WBC from whole blood in real-time was envisioned (see FIG. 1B).
Direct sample measurements enable the study of WBC biophysical profiles in different health states of an individual for healthy donors, patients admitted to the ED without signs of infection (ED Control), and patients with clear signs of infection and fulfilling at least two SIRS criteria (ED≥2 SIRS) (See Table 3). The second group are tests performed on blood, which have undergone external or in vitro test conditions to activate the WBCs. These include 5 ng/ml lipopolysaccharide (LPS), which mimics the bacteria coat that would trigger inflammation and phorbol 12-myristate 13-acetate (PMA) at 100 and 1000 nM, a known activator of WBCs. […]

CCCCCCCCCCCCCC(=O)O[C@@H]1[C@@H](C)[C@@]2(O)[C@@H](C=C(CO)C[C@]3(O)C(=O)C(C)=C[C@@H]23)[C@@H]2C(C)(C)[C@]12OC(C)=O [PMA, phorbol 12-myristate 13-acetate]
WBC Dapp (average of L and L^-1 DLD assays) (PMA 100 nM): 12.6±0.8 μm
increase in WBC Dapp (PMA 100 nM): 30%
WBC Dapp (average of L and L^-1 DLD assays) (PMA 1000 nM): 13.9±0.7 μm
increase in WBC Dapp (PMA 1000 nM): 43%
